From patent US8299267B2, “(3-hydroxy-4-amino-butan-2-yl) -3- (2-thiazol-2-yl-pyrrolidine-1-carbonyl) benzamide derivatives and related compounds as beta-secretase inhibitors for treating” (CoMentis, Inc., priority 2007, dated 2012)

Tests used:
[1] = system: Aβ production in Chinese hamster ovary cells that over-express human APP695 with the London and Swedish mutations; assay: Cellular Aβ IC50 determination (Aβ40 sandwich ELISA); format: cell-based; conditions: Cricetulus griseus; Aβ40 in CHO cells over-expressing human APP695, 24 h incubation
Summary of the method: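 APP695 (London/Swedish)-overexpressing CHO cells were treated 48 h after seeding with serial dilutions from near 4 μM top concentration (0.4% DMSO) for 24 h at 37 °C. Secreted Aβ40 was quantified by sandwich ELISA relative to controls and fit to a 4-parameter IC50 model.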

memapsin 2 = memapsin 2 (Homo sapiens, UniProt P56817); assay: Inhibition of memapsin 2 beta-secretase activity toward fluorogenic substrate FS-2; format: biochemical; conditions: memapsin 2, pH 4, 37° C., 20 minutes pre-incubation, substrate FS-2; read-out: M2Ki
Summary of the method: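 Memapsin 2 was preincubated with compound 20 min at pH 4, 37 °C, then reacted with fluorogenic substrate FS-2 (MCA-SEVNLDAEFK-DNP), an APP-derived Swedish-variant peptide. Inhibition was followed kinetically by fluorescence.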

memapsin 2, sequence (P56817 46-501): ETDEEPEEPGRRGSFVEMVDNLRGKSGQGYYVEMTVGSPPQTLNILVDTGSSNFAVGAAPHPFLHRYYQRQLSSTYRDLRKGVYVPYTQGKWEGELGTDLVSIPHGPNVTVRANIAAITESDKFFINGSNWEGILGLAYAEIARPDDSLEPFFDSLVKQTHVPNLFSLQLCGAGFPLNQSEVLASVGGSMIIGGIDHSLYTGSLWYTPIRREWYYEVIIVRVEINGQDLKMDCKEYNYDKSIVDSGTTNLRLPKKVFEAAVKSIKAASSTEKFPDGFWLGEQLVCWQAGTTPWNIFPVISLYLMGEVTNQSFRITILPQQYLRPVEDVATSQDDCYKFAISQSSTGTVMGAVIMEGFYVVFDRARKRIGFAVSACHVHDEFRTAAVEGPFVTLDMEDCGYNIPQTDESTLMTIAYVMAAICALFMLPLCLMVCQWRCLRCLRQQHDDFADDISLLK

Row | SMILES | IC50 [1] [nM] | Ki (memapsin 2) [nM]
1 | Cc1cc(C(=O)N[C@@H](Cc2ccccc2)[C@H](O)CNCc2cncc(C(C)C)c2)cc(C(=O)N2CCC[C@@H]2c2nc(C)cs2)c1 [Compound 52, N-((2S,3R)-3-hydroxy-4-((5-isopropylpyridin-3-yl)methylamino)-1-phenylbutan-2-yl)-3-methyl-5-((R)-2-(4-methylthiazol-2-yl)pyrrolidine-1-carbonyl)benzamide] | < 300 | < 100
2 | Cc1cc(C(=O)N[C@@H](Cc2ccccc2)[C@H](O)CNCc2cccc(C(F)(F)F)c2)cc(C(=O)N2CCC[C@@H]2c2nc(C)co2)c1 [Compound 55, N-((2S,3R)-3-hydroxy-1-phenyl-4-(3-(trifluoromethyl)benzylamino)butan-2-yl)-3-methyl-5-((R)-2-(4-methyloxazol-2-yl)pyrrolidine-1-carbonyl)benzamide] | < 300 | < 100
3 | Cc1cc(C(=O)N[C@@H](Cc2ccccc2)[C@H](O)CNCc2cncc(C(C)C)c2)cc(C(=O)N2CCC[C@@H]2c2nc(C)co2)c1 [Compound 56, N-((2S,3R)-3-hydroxy-4-((5-isopropylpyridin-3-yl)methylamino)-1-phenylbutan-2-yl)-3-methyl-5-((R)-2-(4-methyloxazol-2-yl)pyrrolidine-1-carbonyl)benzamide] | < 300 | < 100
4 | Cc1csc([C@H]2CCCN2C(=O)c2cc(C(=O)N[C@@H](Cc3ccccc3)[C@H](O)CNCc3cccc(C(F)(F)F)c3)cc(C(F)F)c2)n1 [Compound 57, 3-(difluoromethyl)-N-((2S,3R)-3-hydroxy-1-phenyl-4-(3-(trifluoromethyl)benzylamino)butan-2-yl)-5-((R)-2-(4-methylthiazol-2-yl)pyrrolidine-1-carbonyl)benzamide] | < 300 | < 100
5 | Cc1cc(C(=O)N[C@@H](Cc2ccccc2)[C@H](O)CNCc2cncc(C(C)(C)F)c2)cc(C(=O)N2CCC[C@@H]2c2nc(C)co2)c1 [Compound 59, N-((2S,3R)-4-((5-(2-fluoropropan-2-yl)pyridin-3-yl)methylamino)-3-hydroxy-1-phenylbutan-2-yl)-3-methyl-5-((R)-2-(4-methyloxazol-2-yl)pyrrolidine-1-carbonyl)benzamide] | < 300 | < 100
6 | Cc1csc([C@H]2CCCN2C(=O)c2cncc(C(=O)N[C@@H](Cc3ccccc3)[C@H](O)CNCc3cc(Cl)cc(Cl)c3)c2)n1 [Compound 60, N-((2S,3R)-4-(3,5-dichlorobenzylamino)-3-hydroxy-1-phenylbutan-2-yl)-5-((R)-2-(4-methylthiazol-2-yl)pyrrolidine-1-carbonyl)nicotinamide] | < 300 | < 100
7 | Cc1csc([C@H]2CCCN2C(=O)c2cc(C(=O)N[C@@H](Cc3ccccc3)[C@H](O)CNCc3cccc(C(F)(F)F)c3)ccn2)n1 [Compound 64, N-((2S,3R)-3-hydroxy-1-phenyl-4-(3-(trifluoromethyl)benzylamino)butan-2-yl)-2-((R)-2-(4-methylthiazol-2-yl)pyrrolidine-1-carbonyl)isonicotinamide] | < 300 | < 100
8 | Cc1cc(CNC[C@@H](O)[C@H](Cc2ccccc2)NC(=O)c2cccc(C(=O)N3CCC[C@@H]3c3nc(C)cs3)c2)on1 [Compound 65, N-((2S,3R)-3-hydroxy-4-((3-methylisoxazol-5-yl)methylamino)-1-phenylbutan-2-yl)-3-((R)-2-(4-methylthiazol-2-yl)pyrrolidine-1-carbonyl)benzamide] | 301 to 500 | > 201
9 | Cc1csc([C@H]2CCCN2C(=O)c2cccc(C(=O)N[C@@H](Cc3ccccc3)[C@H](O)CNCc3cc(C)on3)c2)n1 [Compound 66, N-((2S,3R)-3-hydroxy-4-((5-methylisoxazol-3-yl)methylamino)-1-phenylbutan-2-yl)-3-((R)-2-(4-methylthiazol-2-yl)pyrrolidine-1-carbonyl)benzamide] | < 300 | < 100
10 | Cc1cc(C(=O)N2CCC[C@@H]2c2nc(C)cs2)cc(C(=O)N[C@@H](Cc2ccccc2)[C@H](O)CNCc2cccc(C(F)(F)F)c2)n1 [Compound 68, N-((2S,3R)-3-hydroxy-1-phenyl-4-(3-(trifluoromethyl)benzylamino)butan-2-yl)-6-methyl-4-((R)-2-(4-methylthiazol-2-yl)pyrrolidine-1-carbonyl)picolinamide] | < 300 | < 100
11 | Cc1csc([C@H]2CCCN2C(=O)c2cccc(C(=O)N[C@@H](Cc3ccccc3)[C@H](O)CNCc3cccc(N(C)C)c3)c2)n1 [Compound 69, N-((2S,3R)-4-(3-(dimethylamino)benzylamino)-3-hydroxy-1-phenylbutan-2-yl)-3-((R)-2-(4-methylthiazol-2-yl)pyrrolidine-1-carbonyl)benzamide] | < 300 | < 100
12 | Cc1coc([C@H]2CCCN2C(=O)c2cccc(C(=O)N[C@@H](Cc3ccccc3)[C@H](O)CNCc3cccc(C(C)(C)C)c3)c2)n1 [Compound 70, N-((2S,3R)-4-(3-tert-butylbenzylamino)-3-hydroxy-1-phenylbutan-2-yl)-3-((R)-2-(4-methyloxazol-2-yl)pyrrolidine-1-carbonyl)benzamide] | < 300 | < 100
13 | Cc1coc([C@H]2CCCN2C(=O)c2cncc(C(=O)N[C@@H](Cc3ccccc3)[C@H](O)CNCc3cncc(C(C)C)c3)c2)n1 [Compound 71, N-((2S,3R)-3-hydroxy-4-((5-isopropylpyridin-3-yl)methylamino)-1-phenylbutan-2-yl)-5-((R)-2-(4-methyloxazol-2-yl)pyrrolidine-1-carbonyl)nicotinamide] | < 300 | < 100
14 | Cc1coc([C@H]2CCCN2C(=O)c2cncc(C(=O)N[C@@H](Cc3ccccc3)[C@H](O)CNCc3cncc(C(C)(C)F)c3)c2)n1 [Compound 73, N-((2S,3R)-4-((5-(2-fluoropropan-2-yl)pyridin-3-yl)methylamino)-3-hydroxy-1-phenylbutan-2-yl)-5-((R)-2-(4-methyloxazol-2-yl)pyrrolidine-1-carbonyl)nicotinamide] | < 300 | < 100
15 | Cc1csc([C@H]2CCCN2C(=O)c2cc(C(=O)N[C@@H](Cc3ccccc3)[C@H](O)CNCc3cncc(C(C)C)c3)cc(-n3cccc3)c2)n1 [Compound 74, N-((2S,3R)-3-hydroxy-4-((5-isopropylpyridin-3-yl)methylamino)-1-phenylbutan-2-yl)-3-((R)-2-(4-methylthiazol-2-yl)pyrrolidine-1-carbonyl)-5-(1H-pyrrol-1-yl)benzamide] | < 300 | < 100
16 | Cc1csc([C@H]2CCCN2C(=O)c2cc(C(=O)N[C@@H](Cc3ccccc3)[C@H](O)CNCc3cccc(C(F)(F)F)c3)cc(-c3ccco3)n2)n1 [Compound 75, 2-(furan-2-yl)-N-((2S,3R)-3-hydroxy-1-phenyl-4-(3-(trifluoromethyl)benzylamino)butan-2-yl)-6-((R)-2-(4-methylthiazol-2-yl)pyrrolidine-1-carbonyl)isonicotinamide] | < 300 | < 100
17 | Cc1coc([C@H]2CCCN2C(=O)c2cncc(C(=O)N[C@@H](Cc3ccccc3)[C@H](O)CNCc3cccc(C(C)(C)C)c3)c2)n1 [Compound 76, N-((2S,3R)-4-(3-tert-butylbenzylamino)-3-hydroxy-1-phenylbutan-2-yl)-5-((R)-2-(4-methyloxazol-2-yl)pyrrolidine-1-carbonyl)nicotinamide] | < 300 | < 100
18 | Cc1coc([C@H]2CCCN2C(=O)c2cc(CF)cc(C(=O)N[C@@H](Cc3ccccc3)[C@H](O)CNCc3cncc(C(C)C)c3)c2)n1 [Compound 77, 3-(fluoromethyl)-N-((2S,3R)-3-hydroxy-4-((5-isopropylpyridin-3-yl)methylamino)-1-phenylbutan-2-yl)-5-((R)-2-(4-methyloxazol-2-yl)pyrrolidine-1-carbonyl)benzamide] | < 300 | < 100
19 | Cc1coc([C@H]2CCCN2C(=O)c2cc(CF)cc(C(=O)N[C@@H](Cc3ccccc3)[C@H](O)CNCc3cncc(C(C)(C)F)c3)c2)n1 [Compound 78, 3-(fluoromethyl)-N-((2S,3R)-4-((5-(2-fluoropropan-2-yl)pyridin-3-yl)methylamino)-3-hydroxy-1-phenylbutan-2-yl)-5-((R)-2-(4-methyloxazol-2-yl)pyrrolidine-1-carbonyl)benzamide] | < 300 | < 100
20 | Cc1cc(C(=O)N[C@@H](Cc2ccccc2)[C@H](O)CNCc2cccc(C(F)(F)F)c2)cc(C(=O)N2CCC[C@@H]2c2nc(C)cs2)n1 [Compound 79, N-((2S,3R)-3-hydroxy-1-phenyl-4-(3-(trifluoromethyl)benzylamino)butan-2-yl)-2-methyl-6-((R)-2-(4-methylthiazol-2-yl)pyrrolidine-1-carbonyl)isonicotinamide] | < 300 | < 100
21 | Cc1csc([C@H]2CCCN2C(=O)c2cc(C(=O)N[C@@H](Cc3ccccc3)[C@H](O)CNCc3cccc(C(F)(F)F)c3)cc(-n3cccc3)c2)n1 [Compound 80, N-((2S,3R)-3-hydroxy-1-phenyl-4-(3-(trifluoromethyl)benzylamino)butan-2-yl)-3-((R)-2-(4-methylthiazol-2-yl)pyrrolidine-1-carbonyl)-5-(1H-pyrrol-1-yl)benzamide] | < 300 | < 100
22 | Cc1csc([C@H]2CCCN2C(=O)c2cc(C(=O)N[C@@H](Cc3ccccc3)[C@H](O)CNCc3cccc(C(F)(F)F)c3)nc(N(C)C)c2)n1 [Compound 81, 6-(dimethylamino)-N-((2S,3R)-3-hydroxy-1-phenyl-4-(3-(trifluoromethyl)benzylamino)butan-2-yl)-4-((R)-2-(4-methylthiazol-2-yl)pyrrolidine-1-carbonyl)picolinamide] | < 300 | < 100
